# Assay results reported in PubChem BioAssay (NCI).
#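 1) Cells in 96-well plates. 2) Compound, 48 h, 5 concentrations. 3) Linear interpolation between surrounding doses. 4) Unreached endpoint = highest concentration. TGI is the concentration that stops growth completely.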
# Columns and labels:
# Assay in all cases: NCI anticancer screen, dose series, 48 h
# OVCAR-4 ovarian = tested on: OVCAR-4 ovarian
# ACHN renal = tested on: ACHN renal
# HT29 colon = tested on: HT29 colon
# COLO 205 colon = tested on: COLO 205 colon
# T-47D breast = tested on: T-47D breast
# SNB-19 CNS = tested on: SNB-19 CNS
# MCF7 breast = tested on: MCF7 breast
# KM12 colon = tested on: KM12 colon
# SF-539 CNS = tested on: SF-539 CNS
# SF-268 CNS = tested on: SF-268 CNS
# RXF 393 renal = tested on: RXF 393 renal
# K-562 leukemia = tested on: K-562 leukemia
# BT-549 breast = tested on: BT-549 breast
# NCI-H23 lung = tested on: NCI-H23 lung
# OVCAR-8 ovarian = tested on: OVCAR-8 ovarian
# SK-OV-3 ovarian = tested on: SK-OV-3 ovarian
# NCI-H522 lung = tested on: NCI-H522 lung
# MDA-MB-231 breast = tested on: MDA-MB-231 breast
# MDA-N = tested on: MDA-N
# A498 renal = tested on: A498 renal
# NCI-H226 lung = tested on: NCI-H226 lung
# SK-MEL-5 melanoma = tested on: SK-MEL-5 melanoma
# UO-31 renal = tested on: UO-31 renal
# OVCAR-3 ovarian = tested on: OVCAR-3 ovarian
# SF-295 CNS = tested on: SF-295 CNS
# RPMI-8226 leukemia = tested on: RPMI-8226 leukemia
# OVCAR-5 ovarian = tested on: OVCAR-5 ovarian
# SK-MEL-28 melanoma = tested on: SK-MEL-28 melanoma
# SNB-75 CNS = tested on: SNB-75 CNS
# IGROV1 ovarian = tested on: IGROV1 ovarian
# UACC-62 melanoma = tested on: UACC-62 melanoma
# U251 CNS = tested on: U251 CNS
# MOLT-4 leukemia = tested on: MOLT-4 leukemia
# SK-MEL-2 melanoma = tested on: SK-MEL-2 melanoma
# HCT-116 colon = tested on: HCT-116 colon
# HL-60(TB) leukemia = tested on: HL-60(TB) leukemia
# UACC-257 melanoma = tested on: UACC-257 melanoma
# HOP-62 NSCLC = tested on: HOP-62 NSCLC
# CAKI-1 renal = tested on: CAKI-1 renal
# HCT-15 colon = tested on: HCT-15 colon
# LOX IMVI melanoma = tested on: LOX IMVI melanoma
# HOP-92 NSCLC = tested on: HOP-92 NSCLC
# M14 melanoma = tested on: M14 melanoma
# HCC-2998 colon = tested on: HCC-2998 colon
# NCI-H460 lung = tested on: NCI-H460 lung
# TK-10 renal = tested on: TK-10 renal
# PC-3 prostate = tested on: PC-3 prostate
# SN12C renal = tested on: SN12C renal
# MDA-MB-435 = tested on: MDA-MB-435
# EKVX NSCLC = tested on: EKVX NSCLC
# DU-145 prostate = tested on: DU-145 prostate
# MALME-3M melanoma = tested on: MALME-3M melanoma
# SW-620 colon = tested on: SW-620 colon
# A549 NSCLC = tested on: A549 NSCLC
# NCI/ADR-RES ovarian = tested on: NCI/ADR-RES ovarian
# HS 578T breast = tested on: HS 578T breast
# CCRF-CEM leukemia = tested on: CCRF-CEM leukemia
# 786-0 renal = tested on: 786-0 renal
# SR leukemia = tested on: SR leukemia
smiles,measurement,setting,value
CCOC(=O)c1oc2cc3c(c4c2c1-c1ccccc1N4C)C=CC(C)(C)O3,TGI,OVCAR-4 ovarian,> 100 µM
same,TGI,ACHN renal,30.5 µM
same,TGI,HT29 colon,> 64 µM
same,TGI,COLO 205 colon,> 100 µM
same,TGI,T-47D breast,> 84.4 µM
same,TGI,SNB-19 CNS,> 54.9 µM
same,TGI,MCF7 breast,26.8 µM
same,TGI,KM12 colon,> 80.4 µM
same,TGI,SF-539 CNS,21.2 µM
same,TGI,SF-268 CNS,> 49.3 µM
same,TGI,RXF 393 renal,28.9 µM
same,TGI,K-562 leukemia,> 91 µM
same,TGI,BT-549 breast,59.6 µM
same,TGI,NCI-H23 lung,> 67.4 µM
same,TGI,OVCAR-8 ovarian,27.1 µM
same,TGI,SK-OV-3 ovarian,69.4 µM
same,TGI,NCI-H522 lung,42.6 µM
same,TGI,MDA-MB-231 breast,> 100 µM
same,TGI,MDA-N,> 100 µM
same,TGI,A498 renal,> 71.4 µM
same,TGI,NCI-H226 lung,48.9 µM
same,TGI,SK-MEL-5 melanoma,97.9 µM
same,TGI,UO-31 renal,65.5 µM
same,TGI,OVCAR-3 ovarian,45.3 µM
same,TGI,SF-295 CNS,30.8 µM
same,TGI,RPMI-8226 leukemia,> 64 µM
same,TGI,OVCAR-5 ovarian,> 100 µM
same,TGI,SK-MEL-28 melanoma,> 95.4 µM
same,TGI,SNB-75 CNS,36.4 µM
same,TGI,IGROV1 ovarian,46.5 µM
same,TGI,UACC-62 melanoma,> 43.4 µM
same,TGI,U251 CNS,31 µM
same,TGI,MOLT-4 leukemia,> 100 µM
same,TGI,SK-MEL-2 melanoma,> 76.4 µM
same,TGI,HCT-116 colon,> 100 µM
same,TGI,HL-60(TB) leukemia,> 100 µM
same,TGI,UACC-257 melanoma,> 100 µM
same,TGI,HOP-62 NSCLC,24.7 µM
same,TGI,CAKI-1 renal,40.8 µM
same,TGI,HCT-15 colon,> 100 µM
same,TGI,LOX IMVI melanoma,> 100 µM
same,TGI,HOP-92 NSCLC,17.7 µM
same,TGI,M14 melanoma,> 100 µM
same,TGI,HCC-2998 colon,> 100 µM
same,TGI,NCI-H460 lung,> 100 µM
same,TGI,TK-10 renal,27.3 µM
same,TGI,PC-3 prostate,> 55.3 µM
same,TGI,SN12C renal,> 100 µM
same,TGI,MDA-MB-435,> 100 µM
same,TGI,EKVX NSCLC,46.6 µM
same,TGI,DU-145 prostate,> 70 µM
same,TGI,MALME-3M melanoma,54.3 µM
same,TGI,SW-620 colon,> 100 µM
same,TGI,A549 NSCLC,> 100 µM
same,TGI,NCI/ADR-RES ovarian,27.6 µM
same,TGI,HS 578T breast,75.1 µM
same,TGI,CCRF-CEM leukemia,> 100 µM
same,TGI,786-0 renal,> 53 µM
Cc1nc(-c2cc3c(ccc4ccccc43)oc2=O)cs1,TGI,OVCAR-4 ovarian,> 100 µM
same,TGI,ACHN renal,> 100 µM
same,TGI,HT29 colon,> 100 µM
same,TGI,COLO 205 colon,> 100 µM
same,TGI,T-47D breast,> 100 µM
same,TGI,SNB-19 CNS,> 100 µM
same,TGI,MCF7 breast,> 100 µM
same,TGI,KM12 colon,> 100 µM
same,TGI,SF-539 CNS,> 100 µM
same,TGI,SF-268 CNS,> 100 µM
same,TGI,RXF 393 renal,> 100 µM
same,TGI,K-562 leukemia,> 100 µM
same,TGI,BT-549 breast,57.8 µM
same,TGI,OVCAR-8 ovarian,> 100 µM
same,TGI,SK-OV-3 ovarian,> 100 µM
same,TGI,NCI-H522 lung,> 100 µM
same,TGI,MDA-MB-231 breast,> 100 µM
same,TGI,MDA-N,> 100 µM
same,TGI,NCI-H226 lung,> 100 µM
same,TGI,SK-MEL-5 melanoma,> 100 µM
same,TGI,UO-31 renal,> 100 µM
same,TGI,SF-295 CNS,> 100 µM
same,TGI,RPMI-8226 leukemia,> 100 µM
same,TGI,OVCAR-5 ovarian,> 100 µM
same,TGI,SK-MEL-28 melanoma,> 100 µM
same,TGI,SNB-75 CNS,75.2 µM
same,TGI,IGROV1 ovarian,> 100 µM
same,TGI,UACC-62 melanoma,> 100 µM
same,TGI,U251 CNS,> 100 µM
same,TGI,MOLT-4 leukemia,> 100 µM
same,TGI,SK-MEL-2 melanoma,> 100 µM
same,TGI,HCT-116 colon,> 100 µM
same,TGI,HL-60(TB) leukemia,> 100 µM
same,TGI,UACC-257 melanoma,> 100 µM
same,TGI,HOP-62 NSCLC,> 100 µM
same,TGI,CAKI-1 renal,> 100 µM
same,TGI,HCT-15 colon,> 100 µM
same,TGI,LOX IMVI melanoma,> 100 µM
same,TGI,HOP-92 NSCLC,89.5 µM
same,TGI,M14 melanoma,> 100 µM
same,TGI,HCC-2998 colon,> 100 µM
same,TGI,NCI-H460 lung,> 100 µM
same,TGI,TK-10 renal,> 100 µM
same,TGI,PC-3 prostate,> 100 µM
same,TGI,SN12C renal,> 100 µM
same,TGI,MDA-MB-435,> 100 µM
same,TGI,EKVX NSCLC,> 100 µM
same,TGI,DU-145 prostate,> 100 µM
same,TGI,MALME-3M melanoma,> 100 µM
same,TGI,SW-620 colon,> 100 µM
same,TGI,A549 NSCLC,> 100 µM
same,TGI,NCI/ADR-RES ovarian,> 100 µM
same,TGI,HS 578T breast,99.3 µM
same,TGI,CCRF-CEM leukemia,> 100 µM
same,TGI,SR leukemia,> 100 µM
same,TGI,786-0 renal,> 100 µM
